Experimental findings from patent publication US10130590B2, “Methods of treating cancer with atovaquone-related compounds” (DANA-FARBER CANCER INSTITUTE, INC., priority 2013, dated 2018) are described below.

One test concerns STAT1. Nature of the test: STAT1 phosphorylation in cancer cells. It counts as cell-based. The text has this:
It has been discovered, using an unbiased gene expression-based approach, that atovaquone is a novel STAT3 inhibitor. Atovaquone acts by diminishing cell-surface gp130 expression and STAT3 tyrosine phosphorylation. As a consequence, critical STAT3 target genes mediating survival and proliferation are reduced, such as survivin, Bcl-2 family members, and cyclin D1. Moreover, atovaquone inhibits the viability of STAT3-dependent cancer cells by inducing apoptosis and disrupting cell cycle progression. […] Since STAT5 activation is crucial to cancer pathogenesis caused by JAK2-V617F, the additional inhibition of STAT5 in this context is a desirable effect of atovaquone. […] Because the effects of atovaquone on STAT activation are restricted to gp130-dependent signaling, atovaquone inhibits STATs more selectively than direct pharmacological JAK inhibition. […] At the same time, the actions of atovaquone extend to all cytokines that signal through gp130, including LIF and OSM, thereby exerting broader effects than therapies specifically directed against IL-6 or IL-6 receptor, such as monoclonal antibodies. This is also advantageous, since oncogenic effects of LIF and OSM have been reported.

The next test has as its system STAT3. Nature of the test: Western blot of STAT3 phosphorylation in reporter and cancer cell lines. It counts as cell-based, human. As for the experimental part:
Western blotting was performed as previously described (Battle T E, Arbiser J, & Frank D A (2005) The natural product honokiol induces caspase dependent apoptosis in B-cell chronic lymphocytic leukemia (B-CLL) cells. Blood 106(2):690-697). Antibodies to phospho-MAPK (9101), total MAPK (9102), phospho-Y705 STAT3 (9131), phospho-S6 (2215), total S6 (2217), phospho-4E-BP1 (9451), total 4E-BP1 (9644), total RSK (9355), phospho-S6K (9234, 85 used at 1:5000), total S6K (2708), phospho-eIF2α (9721, used at 1:1000), total eIF2α (5324), ATF4 (11815, used at 1:1000), PDGFRβ (3169), IGF1Rβ (9750), EGFR (2232), and HER2 (2242) were from Cell Signaling Technology. Phospho-RSK antibody was from R&D (AF889). Antibodies to total STAT3 (sc-482) and gp130 (sc-656, used at 1:1000) were from Santa Cruz Biotechnology. Phospho-S727 STAT3 antibody was described previously (229). REDD1 antibody was from Proteintech (10638-1-AP, used at 1:1000). Antibody recognizing full-length and cleaved ATF6 was from Abcam (ab122897, used at 1:1000). Antibodies to tubulin (T5168) and beta actin (A5316) were from Sigma. All antibodies were used at 1:10000 dilution for western blot unless otherwise noted. For immunoprecipitations, cells were lysed in 500 μl lysis buffer (0.5% NP-40, 150 mM NaCl, 50 mM Tris pH 7.5, with protease and phosphatase inhibitors freshly added at 1:100 [Pierce, PI78443]) on ice for 15 minutes, then centrifuged for 10 minutes at 14,000 RPM and 4° C. The supernatant was transferred to a new tube and incubated with 10 μl JAK2 antibody (Santa Cruz sc-278) or a mix of two TYK2 antibodies, 10 μl of each (Santa Cruz sc-5271 and Cell Signaling Technology 9312). Immunoprecipitation was performed overnight at 4° C. with rotation. The next day, 75 μl of protein A/G beads (Santa Cruz sc-2003) were washed twice in lysis buffer, then incubated with immunoprecipitates overnight as before. The next day, the beads were spun down (1 min. at 7,500 RPM and 4° C.) and washed 3 times with 650 μl lysis buffer for 10 minutes at 4° C. with rotation, then boiled in 50 μl sample buffer+10% β-mercaptoethanol. For Western blot, 20 μl were loaded per lane. For detection of phospho-tyrosine, a mixture of two pan-phospho-tyrosine antibodies (Cell Signaling Technology 9411 and 9416, 1:1000 of each) was used. Antibody to phospho-Y1007/1008 JAK2 was from Cell Signaling 86 Technology (3771, used at 1:1000). Antibody to phospho-Y570 JAK2 was from Millipore (09-241, used at 1:1000). Luminometric Assays Luciferase reporter cell lines were described previously (186). Firefly luciferase values were normalized by concurrent cell viability. Cell viability was measured as ATP-dependent luminescence by Cell Titer Glo (Promega).
The mechanism by which atovaquone inhibits STAT3 was investigated. STAT3-luc reporter cells were pre-treated with atovaquone (20 μM) for 1 hr, and then stimulated with IL-6 (10 ng/ml) for 15 minutes, 30 minutes, 1 hours, or 2 hours. Since STAT3 transcriptional activity is critically dependent on tyrosine phosphorylation, Western blotting was performed to see if atovaquone affected STAT3 phosphorylation. […] Next, atovaquone was used to treat U266 (2.5 hours), HEL (6 hours), or INA-6 cells (4 hours). […] In U266 and INA-6 cells, the source of STAT3 activation is JAK-dependent IL-6 signaling, while in HEL cells, STAT3 is activated by mutant JAK2-V617F. Given that atovaquone inhibits constitutive STAT3 activation in cancer cells, it was asked whether atovaquone inhibits expression of endogenous STAT3 target genes in this context.
Since atovaquone reduced gp130 expression at the cell surface, it was asked whether this effect was accompanied by reduced total gp130 in the cell. To address this question, a time course of atovaquone treatment was performed and total cellular gp130 was measured by Western blotting in U266 cells treated with atovaquone at 20 μM. […]

In test [1] the test system is acute myeloid leukemia (AML). Nature of the test: Retrospective analysis of atovaquone exposure in AML patients after HSCT. It counts as in vivo, human. The procedure: Atovaquone start and end dates for approximately 500 AML patients who underwent HSCT at Dana-Farber Cancer Institute from 2006-2012 were obtained by chart review of the electronic medical record with DFCI IRB approval. Atovaquone was administered as a suspension, 750 mg twice daily. Due to the intermittent atovaquone dosing for some patients, a discontinuation for longer than 50 days disqualified subsequent atovaquone treatment from counting toward a patient's total atovaquone exposure. Patients who received more than one HSCT were excluded (4% of total patients).
The patient population consisted of AML patients treated with HSCT at the Dana-Farber Cancer Institute and who survived at least 150 days after transplant without relapse. Patients treated with atovaquone for at least 100 days within the 150-day period were classified as “high atovaquone” exposure, while the remaining patients were classified as “low atovaquone” exposure. […] To further investigate the anti-cancer activity of atovaquone in patients, serum samples were collected from patients approximately 100 days following HSCT who were being treated with either TMP-SMX or atovaquone. […] Atovaquone is a colored compound, and its presence in patient plasma is visibly noticeable.

On to `O=C1C(O)=C([C@H]2CC[C@H](c3ccc(Cl)cc3)CC2)C(=O)c2ccccc21` [atovaquone, trans-2-[4-(4-chlorophenyl)cyclohexyl]-3-hydroxy-1,4-naphthalenedione], for which, in the test on STAT1 (HEL cells), the “mutant JAK2-dependent phosphorylation of STAT1” value is on record as “inhibited”. Besides, the “IL-6-dependent phosphorylation of STAT1” value in the test with STAT1 (INA-6 and U266 cells) is given as “inhibited IL-6-dependent phosphorylation of STAT1”. In the test with STAT3 (STAT3 reporter cells, 20 μM pre-treatment 1 hr, IL-6 (10 ng/ml)), the “STAT3 tyrosine phosphorylation following IL-6 stimulation” value is “reduced STAT3 tyrosine phosphorylation”. Besides, the “constitutive STAT3 tyrosine phosphorylation” value with STAT3 (U266 (2.5 hours), HEL (6 hours), INA-6 (4 hours)) is listed as “inhibited constitutive STAT3 tyrosine phosphorylation”. Moreover, in the test on STAT3 (U266, 20 μM, time course), the “time after which STAT3 phosphorylation was inhibited” value amounted to 10 min. In addition, in the test with STAT3 (U266, HEL, INA-6 cells), the STAT3 serine phosphorylation entry is “not affected”. Moreover, the “inhibition of STAT3 phosphorylation after cycloheximide pre-treatment” value in the test on STAT3 (U266, cycloheximide 2 μg/ml 1 hour, atovaquone 15 μM 2.5 hours) was “did not affect the inhibition of STAT3 phosphorylation”. The relapse-free survival entry in test [1] ("high atovaquone" (at least 100 days within the 150-day period) vs "low atovaquone") was “significantly improved relapse-free survival”. In test [1] ("high atovaquone" vs "low atovaquone"), the overall survival result is given as “trend toward improved overall survival”.
